The record followed here is article PMC11969438 (Inorganic Chemistry Frontiers, 2025).

A short description of data set [1]: Body weight of treated animals. The settings on record: peritumoral application. The class given is in vivo, CT-26-bearing BALB/c mice. As for the experimental part:
Tumor size was determined daily via manual caliper measurement. […] Animals were euthanized via cervical dislocation.

A short description of data set [2]: Hematological analysis after long-term treatment. The settings on record: 72 h after the fourth dose. As for the experimental part:
Mice were kept in groups of four per cage with sterilized paper-based environmental enrichment and food and water ad libitum, under pathogen-free conditions and a controlled environment with a 12 h light–dark cycle. Syngeneic models of colorectal carcinoma were generated via subcutaneous injection of CT-26 cells (0.5 × 10^6 cells in 50 μL of serum-free RPMI-1640 medium) into the right flank of 8–12 weeks old BALB/c mice. […] All animals were euthanized 24 h after the second dose. […] To determine the anticancer efficacy of the investigated compounds, treatment started 4 d after tumor implantation, when all tumors were measurable (>25 mm^3) using a twice-weekly treatment scheme for two weeks. Tumor size was determined daily via manual caliper measurement. The tumor volume was calculated as tumor volume = (length × diameter × diameter)/2. The overall condition, shape, and activity of the animals were assessed daily. Peripheral blood was collected from the submandibular vein in K3E K3EDTA tubes (Greiner Bio-One; Kremsmünster, AUT) on ice and was analyzed for hematological parameters (red blood cells (RBCs), hemoglobin (HGB), hematocrit (HCT), red cell distribution width (RDW), mean corpuscular volume (MCV), white blood cells (WBCs), lymphocytes (LYM), monocytes (MO), granulocytes (GRA), and platelets (PLT) using a Vet ABC hematology analyzer (scil Animal Care GmbH, Viernheim, Germany). EDTA-blood was centrifuged (900g, 10 min) twice and the supernatant (EDTA-plasma) was stored at −20 °C for subsequent cytokine/chemokine analysis using a Luminex detection platform. All animal experiments were performed with humane endpoints based on Federation of European Laboratory Animal Science Associations guidelines and according to the regulations of the Ethics Committee for the Care and Use of Laboratory Animals at the Medical University Vienna (proposal number BMBWF 2023–0.122.324). Animals were euthanized upon reaching a tumor volume of >1500 mm^3, a loss in body weight (>20%), tumor ulceration or other indications of deteriorated health. Animals were euthanized via cervical dislocation.

As to `COCCOCCOCCOCCNC(=O)[O][Pt-2]12([O]C(=O)CCC(=O)c3cc4cc(OC)c(OC)cc4s3)([NH2+][C@@H]3CCCC[C@H]3[NH2+]1)[O]C(=O)C(=O)[O]2` [Ox-MSA-PEG-Ca, (OC-6-34)-[(1R,2R)-1,2-cyclohexanediamino]-oxalato-[4-(5,6-dimethoxybenzo[b]thiophen-2-yl)-4-oxobutylcarboxylato]-[3,6,9,12-tetraoxatridecan-1-amino]platinum(IV)], the “effect on body weights” value in data set [1] is on record as “without negative effects on body weights”.

Regarding `O=C1[O][Pt]2([NH][C@@H]3CCCC[C@H]3[NH]2)[O]C1=O` [oxaliplatin, reference compound], in data set [2], the “platelet counts (PLT) / thrombocytopenia” value was “distinctly reduced platelet counts”. In data set [2] (i.v. twice a week for two weeks), the “absolute counts of white blood cells and subpopulations” value is given as “massively lowered”.
